Test results published in patent publication US20260183270A1, “PHARMACEUTICAL COMPOSITION COMPRISING AAK1 INHIBITOR” (Xizang Haisco Pharmaceutical Co., Ltd., priority 2022, published 2026).

What was measured:
[1] = test system: SNL-induced mouse model of neuropathic pain; assay: Spinal nerve ligation (SNL)-induced mouse model of neuropathic pain, mechanical pain threshold (Von Frey); assay type: in vivo, C57BL/6J mice; conditions: for Course of analgesic efficacy over time / Effect on pain threshold (MPT) of mice after SNL modeling: 10 mg/kg intragastric; for Course of analgesic efficacy over time: 1 to 6 hours after administration; for Effect on pain threshold (MPT) of mice after SNL modeling: single administration, 1, 3 and 6 hours after administration
Description: Male C57BL/6J mice (8 weeks old) purchased from Jinan Pengyue Experimental Animal Breeding Co., Ltd. were adaptively raised for one week and then the models were established. The specific establishment method comprises the following steps: • 1) disinfecting the surgical instrument and ligature; • 2) anesthetizing the mice with isoflurane and then placing the mice on the operating table in the prone position; • 3) shaving the fur near the hip bones of the mice and preparing the skin, and making an incision of about 2 cm along the spine; • 4) isolating the fascia along the spine, performing blunt dissection of the muscles, and exposing the transverse process of L5; • 5) carefully cutting the transverse process of L5 with forceps and exposing the L5 spinal nerve; • 6) carefully isolating the L5 nerve with a glass dissecting needle, and ligating the L5 nerve with a 5-0 ligature; and • 7) suturing the muscles and skin and disinfecting same with iodophor.
The mice that were unsuccessful in modeling were eliminated the next day after modeling (marker for successful modeling: mice with their hind paws curled up). After modeling, the mice were stroked for 3 to 5 minutes every day to ensure that the animals were familiar with the experimenter, and then the mice were placed on a metal pain measuring frame for 40 to 60 minutes of adaptation. After 3 days of acclimatization, Von Frey filaments (Aesthesio®; 0.16 g, 0.4 g, 0.6 g, 1.0 g, 1.4 g and 2.0 g) were used to test the pre-administration baseline values of the animals (Ascending testing approach). Each animal was tested twice and average values were taken, with intervals of at least 5 minutes. The animals were grouped according to the baseline values (10 animals per group). After the grouping, LX-9211 (1 and 10 mg/kg), compound 2 (1 and 10 mg/kg) or vehicle (40% PEG-400+10% ethanol+15% Tween 80+35% physiological saline) was administered intragastrically. The mice were tested for the mechanical pain threshold (MPT) at 1, 3 and 6 hours after the administration. Time-MPT curve was plotted using GraphPad 8.3.0, and statistical analysis was performed.

[2] = Mouse brain/blood ratio test; assay type: in vivo, ICR mice; conditions: mice
Procedure: male ICR mice, 20 to 25 g, 9 mice/compound. purchased from Chengdu Ddossy Experimental Animals Co., Ltd.
on the day of the experiment, 18 ICR mice were randomly grouped according to their body weights. The animals were fasted with water available for 12 to 14 h one day before the administration and were fed 4 h after the administration.
After intragastric administration, whole blood and brain tissue were collected at 0.5 h, 4 h and 24 h, and the whole blood was centrifuged to separate the plasma. The brain tissue was rinsed with cold physiological saline to remove the residual blood on the surface, drained out and then homogenized. Before analysis and detection, all samples were stored at −80 C, and the samples were quantitatively analyzed by LC-MS/MS.

AAK1 = molecular target: T1, AAK1 (Homo sapiens, UniProt Q2M2I8); assay: In vitro AAK1 enzyme activity assay (ADP-Glo); assay type: biochemical; conditions: read-out: Inhibitory activity against AAK1 IC50
T1 construct: purchased Signalchem A01-11G-10
T1 sequence (Q2M2I8 27-365 limits assumed): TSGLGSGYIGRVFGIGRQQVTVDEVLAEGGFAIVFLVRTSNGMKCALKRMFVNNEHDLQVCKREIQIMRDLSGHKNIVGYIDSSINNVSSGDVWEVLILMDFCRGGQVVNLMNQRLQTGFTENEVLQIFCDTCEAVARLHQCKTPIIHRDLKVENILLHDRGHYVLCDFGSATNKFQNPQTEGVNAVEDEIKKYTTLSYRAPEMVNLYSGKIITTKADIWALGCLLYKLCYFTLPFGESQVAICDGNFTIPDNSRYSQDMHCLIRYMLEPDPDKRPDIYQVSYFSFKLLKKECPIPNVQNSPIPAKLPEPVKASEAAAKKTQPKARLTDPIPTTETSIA
Procedure: Compound stock solution (concentration: 10 mM, dissolved in DMSO) was diluted with DMSO to 0.2 mM and then diluted with DMSO in 5-fold gradient to obtain compound solutions with 10 concentrations. Subsequently, the compound solutions with different concentrations were diluted 50-fold in 1× kinase reaction buffer (containing 40 mM Tris, 20 mM MgCl2, 0.1% BSA and 0.5 mM DTT) for later use. AAK1 (Signalchem, Cat #A01-11G-10) was diluted with 1× kinase reaction buffer to 2-fold the final concentration (final concentrations: 30 nM and 28 nM). AAK1 was added to a 384-well white plate at 2 μL/well, and the compounds were then added at 1 μL/well. The plate was sealed with a plate-sealing film, centrifuged at 1000 rpm for 30 seconds and then placed at room temperature for 10 minutes. […] The RLU (Relative luminescence unit) signal values were read using a Biotek multimode microplate reader and the percent inhibition was calculated according to the following formula: [1−(LUMcompound−LUMpositive control)/(LUMnegative control−LUMpositive control)]×100. IC50 values were calculated using Graphpad 7.0 software using a four-parameter non-linear fit equation.

hERG potassium channel = molecular target: T2, hERG potassium channel (Homo sapiens, UniProt Q12809); assay: Test for hERG potassium ion channel (manual whole cell patch-clamp, CHO cells); assay type: cell-based
T2 construct: expressed in transfected cells
T2 sequence (Q12809 whole entry): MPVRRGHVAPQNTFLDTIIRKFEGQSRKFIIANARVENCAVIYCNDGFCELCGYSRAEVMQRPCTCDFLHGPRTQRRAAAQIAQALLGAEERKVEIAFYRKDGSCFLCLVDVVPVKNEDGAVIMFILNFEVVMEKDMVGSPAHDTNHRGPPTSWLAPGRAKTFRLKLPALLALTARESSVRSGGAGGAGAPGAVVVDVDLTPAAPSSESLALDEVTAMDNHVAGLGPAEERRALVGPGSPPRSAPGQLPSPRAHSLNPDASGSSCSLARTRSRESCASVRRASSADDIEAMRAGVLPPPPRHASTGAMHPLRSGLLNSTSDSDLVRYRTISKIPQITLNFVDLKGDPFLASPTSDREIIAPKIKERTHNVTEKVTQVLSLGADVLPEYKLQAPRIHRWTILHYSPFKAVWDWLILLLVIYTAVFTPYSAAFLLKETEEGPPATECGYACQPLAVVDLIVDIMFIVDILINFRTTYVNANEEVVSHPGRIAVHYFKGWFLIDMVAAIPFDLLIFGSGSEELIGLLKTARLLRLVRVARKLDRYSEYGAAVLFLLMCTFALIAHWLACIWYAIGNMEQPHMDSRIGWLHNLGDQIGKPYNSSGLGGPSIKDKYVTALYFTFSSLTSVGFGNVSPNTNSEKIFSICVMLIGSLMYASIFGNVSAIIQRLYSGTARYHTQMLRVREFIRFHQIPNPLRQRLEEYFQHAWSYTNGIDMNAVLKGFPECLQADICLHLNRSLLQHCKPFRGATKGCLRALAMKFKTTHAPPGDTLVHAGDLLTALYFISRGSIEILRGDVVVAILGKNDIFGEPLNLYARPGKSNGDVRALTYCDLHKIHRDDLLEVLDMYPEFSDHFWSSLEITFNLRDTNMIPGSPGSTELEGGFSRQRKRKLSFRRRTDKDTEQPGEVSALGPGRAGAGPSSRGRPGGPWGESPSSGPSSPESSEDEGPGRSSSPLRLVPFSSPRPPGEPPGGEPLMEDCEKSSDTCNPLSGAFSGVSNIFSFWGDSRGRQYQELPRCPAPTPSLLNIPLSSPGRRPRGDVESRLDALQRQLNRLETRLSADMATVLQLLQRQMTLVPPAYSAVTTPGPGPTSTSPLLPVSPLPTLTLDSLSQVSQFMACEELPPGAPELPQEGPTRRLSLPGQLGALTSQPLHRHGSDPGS
Description: Experimental platform: electrophysiological manual patch-clamp system
Cell line: Chinese hamster ovary (CHO) cell line stably expressing hERG potassium ion channel
Experimental method: in CHO (Chinese Hamster Ovary) cells stably expressing hERG potassium channel, the whole cell patch-clamp technique was used to record hERG potassium channel current at room temperature. The glass microelectrode was made of a glass electrode blank (BF150-86-10, Sutter) by a puller. The tip resistance after filling the liquid in the electrode was about 2-5 MΩ. The glass microelectrode can be connected to the patch-clamp amplifier by inserting the glass microelectrode into an amplifier probe. The clamping voltage and data recording were controlled and recorded by the pClamp 10 software through a computer. The sampling frequency was 10 kHz, and the filtering frequency was 2 kHz. […]
Data processing: data analysis processing was carried out by using pClamp 10, GraphPad Prism 5 and Excel software. The inhibition degree of hERG potassium current (peak value of hERG tail current induced at −50 mV) at different compound concentrations was calculated by the following formula: […]
Compound IC50 was calculated using GraphPad Prism 5 software by fitting according to the following equation: […]

[3] = Pharmacokinetic test of dogs; assay type: in vivo; conditions: beagle dogs, i.g. (3 mg/kg)
Procedure: Experimental animals: male beagle dogs, about 8 to 11 kg, 6 beagle dogs/compound, purchased from Beijing Marshall Biotechnology Co., Ltd.
Experimental method: on the day of the experiment, 12 beagle dogs were randomly grouped according to their body weights. The animals were fasted with water available for 12 to 14 h one day before the administration and were fed 4 h after the administration. Administration was performed as per Table 2.
Before and after the administration, 1 ml of blood was taken from the jugular veins or limb veins, and placed in an EDTAK2 centrifuge tube. Centrifugation was performed at 5000 rpm at 4° C. for 10 min, and plasma was collected. Blood sampling time points for both the LX9211 intravenous administration group and intragastric administration group include: 0 min, 5 min, 15 min, 30 min, 1 h, 2 h, 4 h, 6 h, 8 h, 10 h, 12 h, and 24 h, and blood sampling time points for both the compound 9 intravenous administration group and intragastric administration group include: 0 min, 5 min, 15 min, 30 min, 1 h, 2 h, 4 h, 6 h, 8 h, 10 h, 12 h, 24 h, and 48 h. Before analysis and detection, all samples were stored at −80° C., and the samples were quantitatively analyzed by LC-MS/MS.

Row | SMILES | Course of analgesic efficacy over time [1] | Effect on pain threshold (MPT) of mice after SNL modeling [1] | Efficacy compared with LX-9211 ([1]; at 3 and 6 hours after the administration) | Pharmacodynamic activity as an analgesic compared with LX-9211 ([1]; overall conclusion) | Kp ([2]; male, ICR, mouse, brain/plasma, po, i.g. (10 mg/kg)) | AUC(0-t) ([2]; male, ICR, mouse, plasma, po, i.g. (10 mg/kg), read-out: Plasma AUC0-t) [ng·h/mL] | Brain penetrability (in words) [2] | Brain tissue AUC0-t ([2]; i.g. (10 mg/kg)) [ng·h/g] | IC50 (AAK1) [nM] | inhibition at 40 µM (hERG potassium channel; human, CHO cells stably expressing hERG potassium channel, at 40 μM, read-out: Inhibition rate at the highest concentration tested (hERG potassium channel current)) [%] | IC50 (hERG potassium channel; read-out: IC50 (hERG potassium channel current)) [nM] | F [3] [%]
1 | C=C(C)CC(C)(N)COc1ccc(-c2ccnc(C(F)F)c2)nc1C(F)F (single isomer, unassigned) [Compound 2] | tended to be stable | effectively increased the pain threshold | better efficacy than LX-9211 | better pharmacodynamic activity than LX-9211 | 64.5 | 572 | high brain penetrability | 36853 | 10.9 | 86.6 ± 1.77 | 8750 | –
2 | COC(=O)Nc1cc(-c2ccc(OC[C@@](C)(N)CC(C)(C)F)c(C(F)F)n2)ccn1 [Compound 9] | – | – | – | – | – | – | – | – | – | – | – | 113 ± 6.9
3 | COC(=O)Nc1cc(-c2ccc(OC[C@@](C)(N)CC(C)(C)F)c(C)n2)ccn1 [Compound 10] | – | – | – | – | – | – | – | – | 13.7 | – | – | –
4 | CC(C)C[C@](C)(N)COc1ccc(-c2ccnc(C(F)F)c2)nc1C(F)F [LX-9211, reference compound] | efficacy gradually decreased thereafter | effectively increased the pain threshold | – | – | – | – | – | 110424 | – | – | – | 22.2 ± 8.1
